Where two headings read alike, the source gives them in different places. Square brackets hold non-standard residues; d marks the D form. Peptide text beside a SMILES is read from it. * marks the point of attachment. Sta = CC(C)C[C@H](N)[C@@H](O)CC(=O)O; Isovaleryl = CC(C)CC(=O)*
Experiments:
[1] = tested on: L-pantolactone hydrolase from Lu681; assay: Optical lipase assay with resorufin ester in microtiter plate; assay type: biochemical, Burkholderia caryophylli; settings: Lu681 enzyme, 60 to 482 U/l
[2] = tested on: L-pantolactone hydrolase from Lu681; assay: Substrate specificity of purified L-pantolactone hydrolase from Lu681 (HPLC); assay type: biochemical, Burkholderia caryophylli
[3] = tested on: L-pantolactone hydrolase from Lu5351; assay: Substrate specificity of purified L-pantolactone hydrolase from Lu5351 (HPLC); assay type: biochemical, Agrobacterium radiobacter
[4] = tested on: L-pantolactone hydrolase from Burkholderia caryophylli Lu681; assay: Inhibition and activation by added substances, standard assay, Lu681 enzyme; assay type: biochemical
[5] = tested on: L-pantolactone hydrolase from Agrobacterium radiobacter Lu5351; assay: Inhibition and activation by added substances, standard assay, Lu5351 enzyme; assay type: biochemical
D-pantolactone hydrolase = settings: cited from earlier work
[6] = tested on: recombinant 681 lactonase; assay type: biochemical, Burkholderia caryophylli
[7] = added substance 1 mM, 150 mM L-pantolactone, 1 h, 30° C., vs no addition
[8] = substrate 2.5 mN, 0.1 U/ml enzyme, 150 mM Pipes pH 6.8
[9] = added substance 0.1%, vs no addition
[10] = substrate 150 mN, 0.1 U/ml enzyme, 150 mM Pipes pH 6.8
[11] = substrate 10 mN, 0.1 U/ml enzyme, 150 mM Pipes pH 6.8
[12] = substrate 50 mN, 0.1 U/ml enzyme, 150 mM Pipes pH 6.8

## CCCCCCCCCCCCOCC(COC(=O)CCCC(=O)Oc1ccc2nc3ccc(=O)cc-3oc2c1)OCCCCCCCCCCCC (racemic) [1,2-O-Dilauryl-rac-glycero-3-glutaric acid resorufin ester]
[1]
  lipase activity as share of the L-pantolactone hydrolase activity: about 0.05%
[2]
  Activity: (+) (key: ++: >50 U/l; +: >5 U/l; (+): >0.5 U/l; −: <0.5 U/l)
[3]
  Activity: (+) (key: ++: >50 U/l; +: >5 U/l; (+): >0.5 U/l; −: <0.5 U/l)

## O[C@H](CS)[C@H](O)CS (racemic) [DTT, Dithiothreitol]
[4]; [7]
  Relative Activity: 99%
[5]; [7]
  Relative Activity: 106%

## O=C1Cc2cc(O)ccc2O1 [5-Hydroxy-2-coumaranone]
[2]; [8]
  Activity: + (+: >5 U/l)

## CC#N [Acetonitrile]
[4]
  Relative Activity: 119%

## C[C@H](CCC(=O)NCCC[N+](C)(C)CCCS(=O)(=O)[O-])[C@H]1CC[C@H]2[C@@H]3[C@H](O)C[C@@H]4C[C@H](O)CC[C@]4(C)[C@H]3C[C@H](O)[C@]12C [CHAPS, ([3-Cholamidopropyl]-dimethylammonio)-1-propane-sulfonate]
[4]; [9]
  Relative Activity: 104%
[5]; [9]
  Relative Activity: 100%

## [Ca+2].[Cl-].[Cl-] [CaCl2]
[4]
  Relative Activity: 101%
[5]
  Relative Activity: 105%

## [Cd+2] [Cd^2+]
D-pantolactone hydrolase
  inhibition of the enzyme: inhibited

## O=C(O)CC(O)(CC(=O)O)C(=O)O [Citric acid]
[4]; added substance 30 mM, pH 6.4, vs no addition
  Relative Activity: 97%

## [Cu+2] [Cu^2+]
D-pantolactone hydrolase
  inhibition of the enzyme: inhibited

## O=C1OC(C(O)CO)C(O)C1O [D-(−)-Gulono-γ-lactone]
[3]; pH 6.8
  Activity: ++ (key: ++: >50 U/l; +: >5 U/l; (+): >0.5 U/l; −: <0.5 U/l)

## O=C1OC(C(O)CO)C(O)C1O [D-Galactono-γ-lactone]
[2]; pH 6.8
  Activity: + (key: ++: >50 U/l; +: >5 U/l; (+): >0.5 U/l; −: <0.5 U/l)
[3]; pH 6.8
  Activity: ++ (key: ++: >50 U/l; +: >5 U/l; (+): >0.5 U/l; −: <0.5 U/l)

## CC1(C)COC(=O)C1O [D-Pantolactone]
[2]; [10]
  Activity: − (−: <0.5 U/l)
[6]
  type of inhibition: competitive inhibition
[3]; [10]
  Activity: (+) ((+): >0.5 U/l)

## O=C1CCc2ccccc2O1 [Dihydrocumarin]
[3]; pH 6.8
  Activity: + (key: ++: >50 U/l; +: >5 U/l; (+): >0.5 U/l; −: <0.5 U/l)

## O=C(O)CN(CCN(CC(=O)O)CC(=O)O)CC(=O)O [EDTA, Ethylenediaminetetraacetic acid]
[4]; [7]
  Relative Activity: 97%
[5]; [7]
  Relative Activity: 97%
D-pantolactone hydrolase; U.S. Pat. No. 5,372,940
  inhibition of the enzyme: inhibited

## CCOC(=O)C(C)O (stereo not drawn) [Ethyl (L)(−)-lactate]
[2]; [10]
  Activity: ++ (++: >50 U/l)
[3]; [10]
  Activity: ++ (++: >50 U/l)

## CCOC(=O)[C@@H](C)O [Ethyl D(+)-lactate]
[2]; [10]
  Activity: + (+: >5 U/l)
[3]; [10]
  Activity: + (+: >5 U/l)

## [Cl][Fe][Cl] [FeCl2]
[4]
  Relative Activity: 104%
[5]
  Relative Activity: 108%

## OO [H2O2]
[4]
  Relative Activity: 95%

## [Cl][Hg][Cl] [HgCl2]
[4]
  Relative Activity: 133%
[5]
  Relative Activity: 170%

## [Hg+2] [Hg^2+]
D-pantolactone hydrolase
  inhibition of the enzyme: inhibited

## O=C1Nc2ccccc2C1=O [Isatin]
[2]; [11]
  Activity: + (+: >5 U/l)
[3]; [11]
  Activity: (+) ((+): >0.5 U/l)

## CC(C)O [Isopropanol]
[4]; added substance 10%, vs no addition
  Relative Activity: 93%

## [Cl-].[K+] [KCl]
[4]
  Relative Activity: 99%

## O=C1OC(C(O)CO)C(O)C1O [L-(+)-Gulono-γ-lactone]
[2]; [10]
  Activity: + (+: >5 U/l)
[3]; [10]
  Activity: ++ (++: >50 U/l)

## O=C1O[C@H]([C@@H](O)CO)[C@@H](O)[C@@H]1O [L-Galactono-γ-lactone]
[2]; pH 6.8
  Activity: ++ (key: ++: >50 U/l; +: >5 U/l; (+): >0.5 U/l; −: <0.5 U/l)
[3]; pH 6.8
  Activity: ++ (key: ++: >50 U/l; +: >5 U/l; (+): >0.5 U/l; −: <0.5 U/l)

## CO [MeOH]
[4]
  Relative Activity: 100%

## [Cl-].[Cl-].[Mg+2] [MgCl2]
[4]
  Relative Activity: 99%
[5]
  Relative Activity: 114%

## [Cl][Mn][Cl] [MnCl2]
[4]
  Relative Activity: 100%

## Cl.N [NH4Cl]
[4]
  Relative Activity: 100%

## [Cl][Ni][Cl] [NiCl2]
[4]
  Relative Activity: 96%

## O=S(=O)(F)Cc1ccccc1 [PMSF]
[4]
  Relative Activity: 113%

## CC(C)CC(=O)N[C@H](C(=O)N[C@H](C(=O)N[C@@H](CC(C)C)[C@@H](O)CC(=O)N[C@@H](C)C(=O)N[C@@H](CC(C)C)[C@@H](O)CC(=O)O)C(C)C)C(C)C [Pepstatin] (Isovaleryl-VV[Sta]A[Sta]-OH)
[4]; [7]
  Relative Activity: 117%

## CC1(C)COC(=O)[C@H]1O [S-Pantolactone]
[2]; pH 6.8
  Activity: ++ (key: ++: >50 U/l; +: >5 U/l; (+): >0.5 U/l; −: <0.5 U/l)
[3]; pH 6.8
  Activity: ++ (key: ++: >50 U/l; +: >5 U/l; (+): >0.5 U/l; −: <0.5 U/l)

## CCCCCCCCCCCCOS(=O)(=O)[O-].[Na+] [SDS, Sodium dodecyl sulfate]
[4]; added substance 1%, vs no addition
  Relative Activity: 102%
[5]; added substance 1%, vs no addition, sulfate
  Relative Activity: 74%

## [Cl-].[Cl-].[Zn+2] [ZnCl2]
[4]
  Relative Activity: 113%
[5]
  Relative Activity: 99%

## c1cnc2c(c1)ccc1cccnc12 [o-Phenanthroline]
[4]
  Relative Activity: 95%

## O=S(=O)(O)c1cc[c]([Hg][Cl])cc1 [pCMBS, p-Chloromercuribiphenylsulfonic [sic] acid]
[4]
  Relative Activity: 108%
[5]
  Relative Activity: 112%

## CC(=O)Oc1cccc2ccccc12 [α-Naphthyl acetate]
[2]; [8]
  Activity: (+) ((+): >0.5 U/l)
[3]; [8]
  Activity: (+) ((+): >0.5 U/l)

## O=C1CCCO1 [γ-Butyrolactone]
[2]; pH 6.8
  Activity: + (key: ++: >50 U/l; +: >5 U/l; (+): >0.5 U/l; −: <0.5 U/l)
[3]; pH 6.8
  Activity: ++ (key: ++: >50 U/l; +: >5 U/l; (+): >0.5 U/l; −: <0.5 U/l)

## CC1CCC(=O)O1 (stereo not shown) [γ-Valerolactone]
[2]; pH 6.8
  Activity: + (key: ++: >50 U/l; +: >5 U/l; (+): >0.5 U/l; −: <0.5 U/l)
[3]; pH 6.8
  Activity: ++ (key: ++: >50 U/l; +: >5 U/l; (+): >0.5 U/l; −: <0.5 U/l)

## CCCCC1CCCC(=O)O1 (stereo not shown) [δ-Nonalactone]
[2]; pH 6.8
  Activity: + (key: ++: >50 U/l; +: >5 U/l; (+): >0.5 U/l; −: <0.5 U/l)
[3]; pH 6.8
  Activity: ++ (key: ++: >50 U/l; +: >5 U/l; (+): >0.5 U/l; −: <0.5 U/l)

## O=C1CCCCO1 [δ-Valerolactone]
[2]; [12]
  Activity: + (+: >5 U/l)
[3]; [12]
  Activity: ++ (++: >50 U/l)

## O=C1CCCCCO1 [ε-Caprolactone]
[2]; pH 6.8
  Activity: ++ (key: ++: >50 U/l; +: >5 U/l; (+): >0.5 U/l; −: <0.5 U/l)
[3]; pH 6.8
  Activity: ++ (key: ++: >50 U/l; +: >5 U/l; (+): >0.5 U/l; −: <0.5 U/l)

## CoCl2
[4]
  Relative Activity: 97%

## Triton
[4]
  Relative Activity: 104%

Reference: patent publication US6998258B1, “L-pantolactone-hydrolase and a method for producing D-pantolactone” (BASF Aktiengesellschaft, priority 1999, dated 2006)
